The values below come from patent US6251900A, “Heterocyclic compounds and antitumor agent containing the same as active ingredient” (Zenyaku Kogyo Kabushiki Kaisha, priority 1997, dated 2001).

Each structure is given as a SMILES string. Counter-ions that a name gives are not always drawn. Some results are limits rather than exact numbers.

One series deals with MCF-7 cells. In words: Growth inhibition of MCF-7 human breast cancer cells, 72 h culture (Test 1). It counts as cell-based. The conditions noted are these: MCF7, 37° C., read-out: 50% Growth inhibition concentrations (GI50). How it is done:
Used in the test were MCF-7 cells which were established from human breast cancer and were cultured routinely under the conditions of 37° C. and 5% CO2, in RPMI 1640 medium supplemented with 10% fetal calf serum, HEPES buffer solution (25 mM) and kanamycin (0.1 mg/ml). Single cell suspension was prepared by adding trypsin/EDTA to the medium so as to be adjusted to 4.0×10^4 cells/ml. Test compounds were dissolved or suspended in DMSO or RPMI 1640 medium at a concentration of 1.0×10^-4 -1.0×10^-9 M.
The cell suspension and the sample solution or suspension were filled in a 96-wells microplate at a rate of 0.1 ml of the former and 0.1 ml of the latter per well and cultured at 37° C. for 72 hours in 5% CO2.
50% Growth inhibition concentrations (GI50 μM) were calculated from growth inhibitions at various sample concentrations.

The test system of series [1] is M5076 mouse reticulum cell sarcoma cells. In words: Tumor growth inhibition, M5076 mouse reticulum cell sarcoma transplanted subcutaneously in BDF1 mice (Test 2). It counts as in vivo. As to conditions: abdominally administered for 9 days, tumor weight on day 21. How it is done: The treated group to which the test sample was administered consisted of seven mice while the control group consisted of ten mice. Six weeks old male mice (BDF1, 25±2.5 g) were employed as host animals.
M5076 mouse reticulum cell sarcoma cells routinely cultured in abdominal of C57BL/6 male mice were diluted with cold Hanks solution and 1.0×10^6 cells of them were transplanted subcutaneously into left breast of each mouse. The samples prepared by suspending test compounds in 1% hydroxypropyl cellulose (HPC) were abdominally administered for 9 days after the day after the transplantation. After 21 days passed from the transplantation of the tumor, the mice were killed and the tumors were extracted out to measure the tumor weights of the respective groups.
Effect of sample was calculated as tumor growth inhibition by the following formula:
Tumor Growth Inhibition (%)=(1-T/C)×100
T: tumor weight of group with sample administered
C: tumor weight of control group

The nature of series [2]: Acute toxicity in BDF1 male mice (Test 3). As to conditions: mouse, in vivo, po, orally or abdominally administered, observation for 14 days. How it is done:
The acute toxicity was determined by orally or abdominally administrating the compound 9 or 22 of the present invention, which was adjusted by distilled water added with 1% of hydroxypropyl cellulose, to BDF1 male mice (6-weeks-old, having a body weight of 25±2.5 g) and LD50 was obtained over observation for 14 days. As a result, it was found out that LD50 of any of the compounds was 400-800 mg/kg.

For orientation: LD50 means the dose expected to kill half of the subjects tested. Regarding `C[C@@H]1OCCN(c2nc(N3CCOCC3)nc(-n3cnc4ccccc43)n2)[C@H]1C` (relative stereo) [compound 9, 2-(benzimidazol-1-yl)-4-(trans-2,3-dimethylmorpholino)-6-morpholino-1,3,5-triazine], the GI50 with MCF-7 cells turned out to be 1.2 µM. The “Tumor Growth Inhibition (%)” value in series [1] (200 mg/kg) worked out at 98.6%. In series [2], this molecule yielded an LD50 at 336 h of 400 to 800 mg/kg.
In the case of `C[C@@H]1OCCN(c2cc(N3CCOCC3)nc(-n3cnc4ccccc43)n2)[C@H]1C` (relative stereo) [compound 22, 2-(benzimidazol-1-yl)-4-(trans-2,3-dimethylmorpholino)-6-morpholinopyrimidine], the GI50 with MCF-7 cells turned out to be 2.2 µM. Moreover, the “Tumor Growth Inhibition (%)” value in series [1] (100 mg/kg) stood at 83.8%. In addition, the LD50 at 336 h in series [2] lay within 400 to 800 mg/kg.
With `C[C@@H]1CN(c2nc(N3CCOCC3)nc(-n3cnc4ccccc43)n2)C[C@H](C)O1` [compound 1, 2-(benzimidazol-1-yl)-4-(cis-2,6-dimethyl-morpholino)-6-morpholino-1,3,5-triazine], in the series on MCF-7 cells, the GI50 is 2.9 µM. Further, in series [1] (200 mg/kg), the “Tumor Growth Inhibition (%)” value is reported as 94.7%.
The corresponding values for `CC1(C)CN(c2nc(N3CCOCC3)nc(-n3cnc4ccccc43)n2)CCO1` [compound 11, 2-(benzimidazol-1-yl)-4-(2,2-dimethylmorpholino)-6-morpholino-1,3,5-triazine] are 1.7 µM and 88.3%.
The corresponding values for `C[C@@H]1CN(c2cc(N3CCOCC3)nc(-n3cnc4ccccc43)n2)C[C@H](C)O1` [compound 19, 2-(benzimidazol-1-yl)-4-(cis-2,6-dimethyl-morpholino)-6-morpholinopyrimidine] are 3.2 µM and 98.1%.
Take `NCCCCC1CCCN(c2nc(N3CCOCC3)nc(-n3cnc4ccccc43)n2)C1` (stereo not drawn) [compound 53, hydrochloride of 2-[3-(4-aminobutyl)piperidino]-4-(benzimidazol-1-yl)-6-morpholino-1,3,5-triazine]: the GI50 in the series with MCF-7 cells turned out to be 5.2 µM.
As to `c1cn(-c2nc(N3CCOCC3)nc(N3CCOCC3)n2)cn1` [compound A, 2-(imidazol-1-yl)-4,6-dimorpholino-1,3,5-triazine, reference compound], the GI50 with MCF-7 cells was 20 µM. Further, the “Tumor Growth Inhibition (%)” value in series [1] (70 mg/kg) amounted to 5.0%.
Turning to `CN(C)c1nc(N(C)C)nc(N(C)C)n1` [compound B, hexamethylmelamine, reference compound], the GI50 with MCF-7 cells was more than 100 µM. Also, in series [1] (100 mg/kg), the “Tumor Growth Inhibition (%)” value is given as 38.8%.
As to `CN(C)c1nc(N(C)C)nc(N(C)CO)n1` [compound C, hydroxymethylpentamethylmelamine, reference compound], in the series with MCF-7 cells, the GI50 was more than 50 µM.
